# Reference: patent publication US20120225889A1, “USE OF MACROCYCLIC LACTONE DERIVATIVES FOR THE TREATMENT OF INFLAMMATORY DISORDERS” (PIRAMAL LIFE SCIENCES LIMITED, priority 2010, published 2012)
# Like-named read-outs stand apart in the source and are kept apart here.
# Legend:
# IL-6 [1] = test: Cytokine release assay in hPBMCs: IL-6; type: cell-based; conditions: Homo sapiens
# Method: hPBMCs were obtained from healthy donors by centrifugation of heparinized venous blood over Ficoll/Hypaque solution (Histopaque-1077, Sigma, USA). Isolated hPBMCs were suspended in RPMI 1640 culture medium supplemented with 10% FBS and seeded at a density of 50,000 cells/well in a 96-well plate (Nunc, USA). The cells were incubated at 37° C., 5% CO2 for a period of 24 h. These cells were used for the lymphocyte proliferation as well as cytokine release assay.
# The plated cells were treated with different concentrations of the test compound (prepared as mM stock in DMSO and diluted with DMSO to achieve the following final concentrations in the assay: 100, 10, 1, 0.1, 0.01, 0.001, 0.0001, 0.00001 and 0.000001 μM) and incubated for 30 min. The cells were then stimulated with PHA (prepared as 1 mg/mL stock in RPMI 1640 culture medium and used at a final concentration of 5 μg/mL). FK506 was used as a standard. The plates were incubated at 37° C., 5% CO2 for 48 h. The cytokines in the supernatant collected were detected using ELISA kit (BD biosciences, USA). The cytokines evaluated in the assay were TNF-α, IL-2, IL-6, and IFN-γ.
# IL-6 [2] = test: hPBMC membrane-monocyte contact bioassay: IL-6; type: cell-based; conditions: Homo sapiens, monocytes, 24 h, read-out: inhibition of activated hPBMC mediated IL-6 production
# From the text: The assay was designed as in reference, Immunology Letters, 117, 114-118, (2008), the disclosure of which is incorporated by reference for the teaching of the assay. Activated T cell contact-mediated monocyte activation, leading to the production of proinflammatory cytokines (e.g., TNF-α, IL-6), contributes to the pathogenesis of chronic inflammatory diseases including rheumatoid arthritis.
# 6-well plates (Nunc, USA) were coated with Goat anti-Mouse IgG, Fc (Chemicon, USA) at a concentration of 16.5 μL/mL in coating buffer ([…] NaHCO3, 3.56 g Na2CO3, pH 9.5).
# The plates were incubated overnight at 4° C. under sterile conditions. […]
# Following incubation, hPBMCs in separate wells of the 6-well plate were harvested, pooled together, and centrifuged. […] The pellet of hPBMC membranes was resuspended in lysis buffer (Sigma, USA) and the protein concentration was determined by the method of Bradford (Sigma, USA).
# 100 μL monocytes per well at 5×10^5 cells/mL were added to the 96-well plate (Nunc, USA) and cultured for 48 h at 37° C. […] Supernatants were collected after 24 h and TNF-α and IL-6 production was measured using OptiEIA ELISA sets, (BD BioSciences, USA). […]
smiles,measurement,setting,value
"C/C=C/C(O)C(C)/C=C/C(=N\O)C(C)C(O)C(C)C1OC(=O)/C(OC)=C/C(C)=C/C(C)C(O)C(CC)C(O)C(C)C/C(C)=C/C=C/C1OC (stereo not shown) [Compound of example 7, (3Z,5E,13E,15E)-18-((5Z,6E,10E)-3,9-Dihydroxy-5-(hydroxymino)-4,8-dimethyldodeca-6,10-dien-2-yl)-9-ethyl-8,10-dihydroxy-3,17-dimethoxy-5,7,11,13-tetramethyl oxacyclooctadeca-3,5,13,15-tetraen-2-one]",IC50,"IL-6 [1]; Table 3: PHA-PMA induced hPBMC's, 48 h, read-out: IL-6 IC50",10 nM
same,IC50,"IL-6 [1]; Table 4: mitogen stimulated production from hPBMC's, read-out: IL-6 (IC50 μM)",0.007 nM
same,inhibition at 0.3 µM,IL-6 [2]; at 0.3 μM,66%
same,inhibition at 0.5 µM,IL-6 [2]; at 0.5 μM,100%
